Assay results reported in patent US20050239873A1 (priority 1999, published 2005).
Where “and” joins values, the source holds several entries; their conditions need not be identical. Equal values may be shown once.

Legend:
[1] = Pharmacokinetic evaluation in male CD2F1 mice; assay type: in vivo, mouse
Description: To determine the pharmacokinetics of 2-OMe antimycin A1 in male CD2F1 mice, groups of three were dosed either intravenously (tail vein) or intraperitoneally with 2-OMe antimycin A1 (20 mg/kg) in a vehicle of Cremaphor (5%) and ethanol (5%) in 0.9% saline. For both dosing routes, the volume administered was 5 ml/kg body weight. At various times, samples were collected by cardiac puncture into tubes containing NaF/EDTA (dry powders).
Pharmacokinetic values were derived with WinNonlin® software (Mountain View, Calif.).

RPMI-8226 cells = experiment: Metabolic studies: glucose depletion from media and intracellular pH; assay type: cell-based, human
Description: (§1) Cell survival was assayed by exclusion of propidium iodide (PI; 10 μg/ml) by unfixed cells. Annexin V-FITC (Pharmingen) or 3, 3′-dihexyloxacarbocyanine iodide (DiOC6(3); Molecular Probes) staining was analyzed together with PI to discriminate early apoptotic cells. Apoptotic cells were also measured as sub-G1 events among ethanol-fixed cells stained with 10 μg/ml PI. All cell samples were analyzed using a benchtop FACSCalibur™ (Becton Dickinson, San Jose, Calif.). Flow data were analyzed using MultiCycle AV software (Phoenix Flow Systems). For intracellular pH measurements, cell pellets were washed once and resuspended in 2 ml of HEPES-buffered medium (no phenol red and no serum). Carboxy-SNARF-1-AM (Molecular Probes, 1 mM stock in DMSO, stored at −20° C.) was added to a final concentration of 10 μM, and the cells were incubated for 30 min at 37° C. Following incubation with SNARF, cells were sedimented and the pellets were held on ice. Immediately before analysis, pellets were resuspended in […] (HBSS; experimental buffer) or high-[K+] buffer containing nigericin (calibration samples).
The analysis by flow cytometry (Becton Dickinson FACScan™) was done with excitation at 488 nm, and emission at 585 and 640 nm (corresponding to the H^+-bound and—free forms of carboxy-SNARF-1-AM, respectively). […]

[2] = tested on: unfractionated human bone marrow cells; experiment: Toxicity in normal bone marrow cells (PI and annexin V, flow cytometry); assay type: cell-based; conditions: 5-20 μg/ml, 24 to 48 h
Description: The RPMI-8226 cell line was supplied by W. Dalton (Univ. Arizona). U266 and H929 cell lines were obtained from the American Type Culture Collection (Rockville, Md.). Cell lines were grown in RPMI 1640 (Gibco, Grand Island, N.Y.) supplemented with 5% fetal bovine serum (Hyclone, Logan, Utah). Normal bone marrow samples were obtained from allogeneic transplant donors at the Fred Hutchison Cancer Research Center, Seattle, Wash., with appropriate patient consent and Internal Review Board approval. Primary cells were maintained in Iscove's medium (Gibco) supplemented with 10% bovine calf serum, 100 ng/ml stem cell factor (Amgen, Thousand Oaks, Calif.), and 50 ng/ml interleukin-3 (Biosource, Camarillo, Calif.).
Cell survival was assayed by exclusion of propidium iodide (PI; 10 μg/ml) by unfixed cells. Annexin V-FITC (Pharmingen) or 3, 3′-dihexyloxacarbocyanine iodide (DiOC6(3); Molecular Probes) staining was analyzed together with PI to discriminate early apoptotic cells. Apoptotic cells were also measured as sub-G1 events among ethanol-fixed cells stained with 10 μg/ml PI. All cell samples were analyzed using a benchtop FACSCalibur™ (Becton Dickinson, San Jose, Calif.). Flow data were analyzed using MultiCycle AV software (Phoenix Flow Systems). For intracellular pH measurements, cell pellets were washed once and resuspended in 2 ml of HEPES-buffered medium (no phenol red and no serum). […]

[3] = tested on: NB4, an acute promyelocytic cell line; experiment: Propidium iodide exclusion cytotoxicity; assay type: cell-based, human
Description: as §1

[4] = tested on: leukemia and lymphoma cell lines (DHL4, Daudi, Ramos, Molt4 and Jurkat); experiment: Propidium iodide exclusion cytotoxicity; assay type: cell-based, human; conditions: 5 to about 20 μg/ml
Description: as §1

[5] = tested on: myeloid leukemia cell lines; experiment: Propidium iodide exclusion cytotoxicity; assay type: cell-based, human; conditions: 20 μg/ml, even after 48 h; seven or eight cell lines
Description: as §1

CCCCCC[C@H]1C(=O)O[C@H](C)[C@H](NC(=O)c2cccc(NC=O)c2OC)C(=O)O[C@@H](C)[C@@H]1OC(=O)CC(C)C [2-OMeA1, 2-methoxy antimycin A1]
AUC ([1]; Intraperitoneal dose 20 mg/kg): 2410 ng·h/mL
Cmax ([1]; Intraperitoneal dose 20 mg/kg): 483 ng/mL
MRT ([1]; Intraperitoneal dose 20 mg/kg): 474 min
T1/2 ([1]; Intraperitoneal dose 20 mg/kg): 183 min
AUC ([1]; Intravenous dose 20 mg/kg): 3720 ng·h/mL
Cmax ([1]; Intravenous dose 20 mg/kg): 8000 ng/mL
MRT ([1]; Intravenous dose 20 mg/kg): 27.6 min
T1/2 ([1]; Intravenous dose 20 mg/kg, 20 mg/kg): 19 min and 19.2 min
plasma concentration at 24 hr after dosing ([1]; intraperitoneal 20 mg/kg): 18 ng/mL
time of maximum plasma level ([1]; intraperitoneal 20 mg/kg): 30 min
plasma concentration at 30 min after dosing ([1]; intravenous 20 mg/kg): 1040 ng/mL
plasma concentration at 30 min as share of that at 5 min ([1]; intravenous 20 mg/kg): about 15%
plasma concentration at 24 hr after dosing ([1]; intravenous 20 mg/kg): 15 ng/mL

2-methoxy antimycin A [2-OMeA]
glycolysis (depletion of glucose from culture media, reduction in intracellular pH) (RPMI-8226 cells): stimulated glycolysis
sensitivity of primary lymphoid and myeloid bone marrow cell subpopulations [2]: insensitive

antimycin A
sensitivity (PI exclusion) [3]: modestly antimycin-sensitive
sensitivity (PI exclusion) [4]: sensitive
sensitivity (PI exclusion) [5]: resistant
